What all share (experiment): NCI-60 cell line screen, 48 h
Test [1] relates to SF-268 CNS.
Test [2] deals with SNB-78 CNS.
The test system of test [3] is NCI-H460 lung.
Test [4] has as its system DMS 273 small cell lung.
Test [5] relates to RPMI-8226 leukemia.
Test [6] deals with SW-620 colon.
The subject of test [7] is SK-MEL-28 melanoma.
Test [8] has as its system SK-MEL-2 melanoma.
For test [9], the system named is COLO 205 colon.

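Step 1: Grow cells in 96-well plates. Step 2: Expose to compound for 48 hours at 5 concentrations. Step 3: Interpolate endpoints linearly; if unreached, use highest concentration. Abbreviation: GI50, concentration required for 50% inhibition of growth. TGI denotes the concentration required for complete inhibition of growth.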

Turning to `NS(=O)(=O)c1ccc(NC(=O)c2cccc3c(=O)c4ccccc4[nH]c23)cc1`, the TGI in test [1], in test [2], in test [3], in test [4], in [5] and in test [6] was above 100 µM throughout. For the same compound, the TGI in [7], in test [8] and in test [9] was above 100 µM throughout.

Turning to `COc1cc(/C=C\c2ccc(O)cc2)cc(OC)c1OC`, the TGI is 4.63 µM in test [1]; 8.3 µM in test [2]; above 30 µM in test [3]; 2.9 µM in test [4]; 35.3 µM in test [5]; above 100 µM in [6]. In addition, the TGI in test [7] was 9.61 µM; in test [8], above 100 µM; in test [9], 13.9 µM.

As for `Clc1cc(Cl)c2c(Cl)cc(Cl)c3c2c1N=S=N3`, the TGI in test [1], in test [2], in test [4], in test [5], in test [6] and in test [7] was above 100 µM in each case. Moreover, the TGI in test [8] and in test [9] was above 100 µM in each case.

On to `CN(C)C(=S)/N=c1\ss/c(=N\S(=O)(=O)c2ccccc2)n1-c1ccccc1`, for which the TGI in test [1], in test [2], in [4], in [5], in test [6] and in test [7] was above 100 µM each time. This compound showed a TGI in test [8] above 100 µM.

As for `CCOc1cccc2nc3cccc(C(=O)NCCN(C)C)c3nc12`, the TGI was 9.3 µM in [2]; above 100 µM in test [4]; 6.46 µM in test [5]; 3.77 µM in test [7]; 3.86 µM in test [8]; 3.52 µM in [9].

With `CC1CCCC(C(=O)/C(=C/c2cccc(Cl)c2)C(=O)C(=O)O)C1` (stereo not given), the TGI was 92.3 µM in test [1]; above 100 µM in test [2]; above 100 µM in test [3]; above 100 µM in [4]; 38 µM in [5]; 27.7 µM in [6]. Besides, the TGI in test [7] and in test [9] was above 100 µM throughout.

For `Oc1c2c(c(O)c3ccccc13)=N[C@@H](c1ccccc1)[C@H](c1ccccc1)N=2`, the TGI in [1], in test [2], in test [3], in test [4], in [5] and in [6] was above 100 µM in each case. Besides, the TGI in test [7] and in test [8] was above 100 µM each time.

Consider `CN1CCN(C)C1c1cccc(C2N(C)CCN2C)c1`, for which the TGI in test [1], in [2], in test [3], in test [4], in test [5] and in test [7] was above 100 µM each time. Besides, the TGI in [8] and in test [9] was above 100 µM throughout.

For `C=C(COC(C)=O)CC(/C=C(\C)CCC=C(C)C)OC(C)=O` (stereo not given), the TGI in test [1], in [2], in [3], in [4], in test [6] and in test [7] was above 100 µM in each case. Moreover, the TGI in [8] and in test [9] was above 100 µM throughout.

Consider `O=c1c2ccccc2c2c3c1cccc3c1cccc3c(=O)c4ccccc4c2c31`, for which the TGI in test [1], in test [2], in test [3], in [4], in [6] and in test [7] was above 100 µM each time. The TGI in test [8] and in test [9] was above 100 µM throughout.

Turning to `CC1=Nc2c(ccc3c2C(=O)c2ccccc2C3=O)NC(c2ccncc2)C1` (stereo not given), the GI50 in [2] is above 100 µM; in test [3] it was above 100 µM; in test [4], above 100 µM; in test [5], 89.9 µM; in test [7], above 100 µM; in test [8], above 100 µM. In addition, the TGI in [2], in test [3], in test [4], in [5], in test [6] and in test [7] was above 100 µM throughout. In test [8], this compound returned a TGI above 100 µM.

For the compound `CC(C)(C)C1(O)Cc2ccccc2C(=O)O1` (stereo not given), the TGI in test [1], in test [2], in [3], in test [4], in test [6] and in [7] was above 100 µM each time. For the same compound, the TGI in test [8] and in [9] was above 100 µM each time.

The values are drawn from PubChem BioAssay (NCI).
